Experimental data published in patent publication US12637430B2, “Interleukin-17 (IL-17) inhibitors” (priority 2020, dated 2026).
Like-named read-outs stand apart in the source and are kept apart here.

Legend:
[1] = tested on: cytochrome P450 1A2 (CYP1A2); assay type: in vitro ADME; conditions: human hepatocytes
Method: In order to evaluate the induction of CYP enzymes in human hepatocytes by the compounds prepared in the above examples at 10 μM, Omeprazole (positive control) and the compound prepared in Example 32 (control compound 2) disclosed in patent application. WO2020/127685A1 were used as controls.

[2] = tested on: imiquimod-induced psoriasis mouse model; assay: Pharmacodynamic test on an imiquimod cream-induced psoriasis model in mice; assay type: in vivo, C57BL/6N mouse
Method: Each 10-week-old female C57 black 6 (C57BL/6N) mouse was shaved to approximately 2.5×4 cm on the back, which the imiquimod (IMQ, Imiquimod) cream continuously applies from the day 1-4, so as to establish a psoriasis model. Each mouse was administrated with the compound 51 prepared in this application by gavage (3, 10, 30 mg/kg) once a day, and administrated with IL-17A antibody solution by intraperitoneal injection (Ab, 2 mg/kg) every other day, or administrated with dexamethasone solution by intraperitoneal injection (10 mg/kg) once a day. […] On day 1 and day 5 of the experiment, the skin thickness of the mice was measured to investigate the skin thickening induced by IMQ.
On day 5 of the experiment, the skins of mice in each group were collected, the mRNA expression level of IL6 was detected by quantitative reverse transcription polymerase chain reaction (RT-qPCR) test. […] On day 5 of the experiment, the plasma of mice in each group was collected, and the IL6 protein level was measured.
On day 5 of the model, the skin samples were collected from the back of each mouse. The samples were fixed in 4% paraformaldehyde, and stained with hematoxylin-eosin (HE) to investigate the protective effect of compound 51 on skin pathological damage.

human IL-17A protein = target: T1, human IL-17A protein (Homo sapiens, UniProt Q16552); assay: Inhibition of chemokine GROα/CXCL1 generation induced by human IL-17A protein in HT-29 cell; assay type: cell-based
T1 construct: purchased R&D 317-ILB
T1 sequence (Q16552 20-155 limits assumed): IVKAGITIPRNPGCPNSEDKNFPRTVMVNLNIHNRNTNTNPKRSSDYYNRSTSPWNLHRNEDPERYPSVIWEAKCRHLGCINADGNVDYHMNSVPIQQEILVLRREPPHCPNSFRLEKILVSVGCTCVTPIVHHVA
Method: HT-29 (Zhongyuan Gongchuang Technology Co., Ltd. of Chengdu, Sichuan) was added to a 96-well plate at 5×10^4 cells/well, and cultured overnight in a incubator at 37° C. A mixture of 30 ng/mL of human IL-17A protein (R&D, #317-ILB) and IL-17A small molecule inhibitors with gradient concentrations or 0.3 μg/mL of positive control IL-17A antibody (R&D, #AF-317-NA) was incubated at 37° C. for 1 h, and then added to the above-mentioned 96-well plate, and incubated with HT-29 cells at 37° C. for 48 hours. Then the GROα level in the cell culture supernatant was detected by an ELISA kit (Cisbio, #62HCXC1PEG) of the GROα.
According to the methods described in Experimental Examples 1 and 2, the compounds prepared in the above-mentioned examples were subjected to the experiment on inhibition of chemokine GROα/CXCL1 generation induced by human IL-17A protein in HT-29 cell.

[3] = Pharmacokinetic properties in mice (intravenous injection/oral gavage); assay type: in vivo; conditions: oral bioavailability
Method: (§1) In order to investigate the pharmacokinetic properties of the compound in rats, 3 rats were administered with the compounds at corresponding doses by intravenous injection/oral gavage, respectively. The anticoagulated whole blood of the rats were collected and the plasma was separated at 5 min, 15 min, 30 min, 1 h, 2 h, 4 h, 8 h, 24 h after administrated. In order to investigate the pharmacokinetic properties of the compound in mice, 6 mice were administered with the compound at the corresponding dose by intravenous injection/oral gavage. The mice administered by each route were divided into A group and B group. The anticoagulated whole blood was collected from the mice in group A at 5 min, 30 min, 2 h, and 8 h after the administration, and the anticoagulated whole blood was collected from the mice in group B at 15 min, 1 h, 4 h, and 24 h after the administration, and plasma was separated. In order to investigate the pharmacokinetic properties of dogs, two groups of 4 beagle dogs (2 males+2 females) were administered with the compound at corresponding doses by intravenous injection/oral gavage. The anticoagulated whole blood of each dog was collected, and the plasma was separated at 2 h, 4 h, 8 h, 12 h, 24 h, 36 h after the administration.
(§2) Plasma concentrations of compounds were determined by standard curve calibration by LC-MS. […]

[4] = Pharmacokinetic properties in dogs (intravenous injection/oral gavage); assay type: in vivo; conditions: oral bioavailability, beagle dogs
Method: as §1, §2

human IL-17A = target: T2, human IL-17A (Homo sapiens, UniProt Q16552); assay: IL-17A enzyme-linked immunosorbent assay (competitive ELISA, IL-17A/IL-17R binding)
T2 construct: purchased Sino Biological Inc. 12047-H07B
T2 sequence (Q16552 24-155): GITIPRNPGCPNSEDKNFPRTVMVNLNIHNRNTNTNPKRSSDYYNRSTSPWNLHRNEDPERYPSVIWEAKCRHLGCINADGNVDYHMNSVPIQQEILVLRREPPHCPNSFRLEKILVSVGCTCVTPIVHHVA
Method: The inhibition of receptor-ligand binding by human IL-17A inhibitors was quantified by competitive ELISA. 0.2 μg/mL of IL-17A (Sino Biological Inc. Cat #12047-H07B) was added in a 96-well plate at 100 μl per well for incubation for 30 min under 37° C. The 96-well plate was washed with PBST (PBS, 0.05% Tween-20) at 200 μl per well for 4 times, and then added with 200 μl of 5% skim milk and placed on a shaker for incubation at 25° C. for 30 min. The compound to be tested was prepared at 100× concentration ranging from 0.003 μM to 30 μM. After washed with PBST (PBS, 0.05% Tween-20) 4 times, the plate was added with 89 μl of PBST and 1 μl of the compound to be tested at 100× concentration followed by uniformly mixing and pre-incubation at 25° C. for 10 min. Then the plate was added with 10 μl of 16 nM IL-17R, and incubated on a shaker at 25° C. for 30 min. After washed for 4 times, the plate was added with 100 μl of anti-Fc-tag horseradish peroxidase (HRP)-conjugated antibody, and incubated on a shaker at 25° C. for 30 min. After washed 4 times, the plate was added with 100 μl of 3,3′, 5,5″-tetramethylbenzidine (TMB) substrate solution, and incubated at 25° C. in the dark. Then the plate was added with 20% HCl, followed by detection of the light absorption value at a wavelength of 450 nm by a microplate reader. The compounds prepared in the above examples were tested for human IL-17A inhibitory activity according to the above method.

[5] = Pharmacokinetic properties in rats (intravenous injection/oral gavage); assay type: in vivo; conditions: oral bioavailability
Method: as §1, §2

## COc1ccc2[nH]c([S+]([O-])Cc3ncc(C)c(OC)c3C)nc2c1 (centres unmarked) [Omeprazole, reference compound]
[1]; concentration 25/750 μM (positive control)
  mRNA Expression level Fold of induction 1A2: 12.8

## Cc1n[nH]c(C)c1-c1ncc(NC(=O)[C@@H](NC(=O)c2ccnn2C(C)C)C(C2CC2)C2CC2)cc1F [Compound 51]
[2]; compound 51 gavage 3, 10, 30 mg/kg once a day, antibody i.p. 2 mg/kg every other day, FIG. 1B
  skin thickening induced by IMQ (skin thickness day 1 and day 5): reversed the skin thickening caused by IMQ at different levels
[2]; day 5, 3, 10 and 30 mg/kg, FIGS. 2A-G
  skin pathological damage (HE staining): may inhibit the infiltration and damage of skin inflammatory cells induced by IMQ at different levels
[2]; day 5, gavage 3, 10, 30 mg/kg, FIG. 1C
  mRNA expression level of IL6 in skin (RT-qPCR): dependently reversed the up-regulation of IL6 expression level
[2]; day 5, gavage 3, 10, 30 mg/kg, FIG. 1D
  IL6 protein level in plasma: dependently inhibited the increase of IL6 protein level in the plasma
[2]; gavage 3, 10, 30 mg/kg once a day, FIG. 1A
  AUC of the psoriasis area and severity index (PASI) scoring curve (skin inflammation): reduced the level of skin inflammation induced by IMQ
Human IL-17A protein
  IC50: 0.224 µM
[3]
  F % (Mice): 56%
[4]
  F %(Dogs): 58%
[1]; 10 μM
  Note 1A2 (CYP1A2 induction): Non-
  mRNA Expression level % of the positive control 1A2: 2.20%
  mRNA Expression level Fold of induction 1A2: 1.26
[1]; 10 μM, listed as compound 51
  Note 1A2 (CYP1A2 induction): no inducing effect
Human IL-17A
  IC50: 0.042 µM
[5]
  F % (Rats): 46%

## CC[C@H]1COCCN1c1ccc(NC(=O)[C@@H](NC(=O)c2ccnn2C)C(C2CCC2)C2(C)CC2)cn1 (some centres unmarked) [Compound 14]
Human IL-17A protein
  IC50: 7.27 µM
Human IL-17A
  IC50: 0.021 µM

## Cn1nccc1C(=O)N[C@H](C(=O)Nc1ccc(N2CCOCC2)nc1)[C@H](c1ccccc1Cl)C1(C)CC1 [Compound 60]
Human IL-17A protein
  IC50: 8.02 µM
Human IL-17A
  IC50: 0.327 µM

## Cc1n[nH]c(C)c1-c1ncc(NC(=O)[C@@H](NC(=O)c2ccnn2C(C)C)C(C2CC2)C2(C)CC2)cc1F (some centres unmarked) [Compound 58]
Human IL-17A protein
  IC50: 0.221 µM
Human IL-17A
  IC50: 0.042 µM

## Cn1nccc1C(=O)N[C@H](C(=O)Nc1cnc(N2CCOCC2)c(F)c1)C(C1CCC1)C1(C)CC1 (some centres unmarked) [Compound 19]
Human IL-17A protein
  IC50: 3.16 µM
Human IL-17A
  IC50: 0.073 µM
